The numbers were not newly measured in patent US6685969B2, “Treatment for ectoparasites” (Schering-Plough HealthCare Products, Inc., priority 2001, dated 2004), which cites them from elsewhere.

The subject of the series is Head Lice. Particulars: comparison of published results.

Take `CC1(C)C(C=C(Cl)Cl)C1C(=O)OCc1cccc(Oc2ccccc2)c1` (stereo not shown) [Permethrin]: the “Evidence of efficacy among topical pesticidal treatments” value is “sufficient evidence of efficacy”.
